From ChEMBL document CHEMBL2440098, “Binding mode characterization of 6α- and 6β-N-heterocyclic substituted naltrexamine derivatives via docking in opioid receptor crystal structures and site-directed mutagenesis studies: application of the 'message-address' concept in development of mu opioid receptor selective antagonists” (Bioorg Med Chem, 2013)

Tests used:
Mu-type opioid receptor [1] = biological target: T1, Mu-type opioid receptor (Homo sapiens, UniProt P35372); assay: Binding affinity to wild type MOR (unknown origin) expressed in CHO cells after 15 mins by Ca2+ mobilization assay; format: cell-based
[2] = Binding affinity to MOR Y210A mutant (unknown origin) expressed in CHO cells after 15 mins by Ca2+ mobilization assay; format: cell-based, Homo sapiens
Mu-type opioid receptor [3] = biological target: T1, Mu-type opioid receptor

T1 sequence (P35372 whole entry): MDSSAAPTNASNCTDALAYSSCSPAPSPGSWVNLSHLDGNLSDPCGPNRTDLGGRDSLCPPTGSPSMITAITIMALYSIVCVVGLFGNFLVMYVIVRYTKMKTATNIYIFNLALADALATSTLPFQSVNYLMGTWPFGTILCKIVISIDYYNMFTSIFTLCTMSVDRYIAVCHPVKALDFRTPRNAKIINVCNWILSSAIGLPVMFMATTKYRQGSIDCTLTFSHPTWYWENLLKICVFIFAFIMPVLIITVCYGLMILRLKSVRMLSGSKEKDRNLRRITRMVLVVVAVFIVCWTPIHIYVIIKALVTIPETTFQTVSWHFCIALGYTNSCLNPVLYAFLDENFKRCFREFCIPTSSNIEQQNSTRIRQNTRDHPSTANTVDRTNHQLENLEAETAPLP

O=C(N[C@H]1CC[C@@]2(O)[C@H]3Cc4ccc(O)c5c4[C@@]2(CCN3CC2CC2)[C@H]1O5)c1cc2ccccc2cn1
Ki (Mu-type opioid receptor [1]): 2.57 nM | IC50 [2]: 3.31 nM | Ki [2]: 1.57 nM | IC50 (Mu-type opioid receptor [3]): 150 nM
